Data as given in ChEMBL document CHEMBL1154999, “N-(2,2-Dimethyl-2-(2-nitrophenyl)acetyl)-4-aminocyclophosphamide as a potential bioreductively activated prodrug of phosphoramide mustard” (Bioorg Med Chem Lett, 2008).

Experiments:
Type in all cases: physicochemical
[1] = Chemical stability in sodium phosphate buffer assessed as half life at pH 6.0 at 37 degC
[2] = Chemical stability in sodium acetate buffer assessed as half life at pH 4.0 at 37 degC
[3] = Chemical stability in sodium acetate buffer assessed as half life at pH 5.4 at 37 degC
[4] = Chemical stability in sodium acetate buffer assessed as half life at pH 4.5 at 37 degC
[5] = Chemical stability in sodium acetate buffer assessed as half life at pH 5.0 at 37 degC
[6] = Chemical stability in sodium phosphate buffer assessed as half life at pH 7.4 at 37 degC
[7] = Chemical stability in sodium acetate buffer assessed as half life at pH 5.6 at 37 degC
[8] = Chemical stability in sodium phosphate buffer assessed as half life at pH 6.5 at 37 degC

CC(C)(C(=O)NC1CCOP(=O)(N(CCCl)CCCl)N1)c1ccccc1N (stereo not drawn)
half-life [1]: 12.6 min
half-life [2]: 3.2 min
half-life [3]: 17.5 min
half-life [4]: 4.9 min
half-life [5]: 9.8 min
half-life [6]: 53.7 min
half-life [7]: 27.2 min
half-life [8]: 19.3 min
